Data taken from patent US20230026611A1, “ARYL HETEROCYCLIC COMPOUNDS AS Kv1.3 POTASSIUM SHAKER CHANNEL BLOCKERS” (D. E. Shaw Research, LLC, priority 2019, published 2023).

Key:
Kv1.3 potassium channel = molecular target: T1, Kv1.3 potassium channel (Homo sapiens, UniProt P22001); assay: Kv1.3 potassium channel blocker activity, automated whole-cell patch clamp (Patchliner) in CHO-K1 cells stably expressing Kv1.3; assay type: cell-based; conditions: CHO-K1 cells stably expressing Kv1.3; patch clamp, current inhibition; read-out: Kv1.3 IC50
T1 construct: expressed in transfected cells
Description: Example 82. Evaluation of Kv1.3 potassium channel blocker activities
This assay is used to evaluate the disclosed compounds' activities as Kv1.3 potassium channel blockers.
CHO-K1 cells stably expressing Kv1.3 were grown in DMEM containing 10% heat-inactivated FBS, 1 mM sodium pyruvate, 2 mM L-glutamine, and G418 (500 μg/ml).
All compounds were dissolved in DMSO at 30 mM.
The currents were evoked by applying 100 ms depolarizing pulses from −90 mV (holding potential) to +40 mV were applied with 0.1 Hz frequency. […] 10-second breaks were used between pulse trains (see Table A below).
Data were sampled at 10 kHz without filtering. Passive leak currents were subtracted online using a P/4 procedure (HEKA Elektronik Dr. Schulze GmbH). […] Total compound incubation time before the next pulse train was not longer than 10 seconds. Peak current inhibition was observed during compound equilibration.

hERG channel = hERG channel (Homo sapiens, UniProt Q12809); assay: hERG electrophysiology, automated whole-cell patch clamp (Patchliner) in CHO-K1 cells stably expressing hERG
hERG channel, sequence (Q12809 whole entry): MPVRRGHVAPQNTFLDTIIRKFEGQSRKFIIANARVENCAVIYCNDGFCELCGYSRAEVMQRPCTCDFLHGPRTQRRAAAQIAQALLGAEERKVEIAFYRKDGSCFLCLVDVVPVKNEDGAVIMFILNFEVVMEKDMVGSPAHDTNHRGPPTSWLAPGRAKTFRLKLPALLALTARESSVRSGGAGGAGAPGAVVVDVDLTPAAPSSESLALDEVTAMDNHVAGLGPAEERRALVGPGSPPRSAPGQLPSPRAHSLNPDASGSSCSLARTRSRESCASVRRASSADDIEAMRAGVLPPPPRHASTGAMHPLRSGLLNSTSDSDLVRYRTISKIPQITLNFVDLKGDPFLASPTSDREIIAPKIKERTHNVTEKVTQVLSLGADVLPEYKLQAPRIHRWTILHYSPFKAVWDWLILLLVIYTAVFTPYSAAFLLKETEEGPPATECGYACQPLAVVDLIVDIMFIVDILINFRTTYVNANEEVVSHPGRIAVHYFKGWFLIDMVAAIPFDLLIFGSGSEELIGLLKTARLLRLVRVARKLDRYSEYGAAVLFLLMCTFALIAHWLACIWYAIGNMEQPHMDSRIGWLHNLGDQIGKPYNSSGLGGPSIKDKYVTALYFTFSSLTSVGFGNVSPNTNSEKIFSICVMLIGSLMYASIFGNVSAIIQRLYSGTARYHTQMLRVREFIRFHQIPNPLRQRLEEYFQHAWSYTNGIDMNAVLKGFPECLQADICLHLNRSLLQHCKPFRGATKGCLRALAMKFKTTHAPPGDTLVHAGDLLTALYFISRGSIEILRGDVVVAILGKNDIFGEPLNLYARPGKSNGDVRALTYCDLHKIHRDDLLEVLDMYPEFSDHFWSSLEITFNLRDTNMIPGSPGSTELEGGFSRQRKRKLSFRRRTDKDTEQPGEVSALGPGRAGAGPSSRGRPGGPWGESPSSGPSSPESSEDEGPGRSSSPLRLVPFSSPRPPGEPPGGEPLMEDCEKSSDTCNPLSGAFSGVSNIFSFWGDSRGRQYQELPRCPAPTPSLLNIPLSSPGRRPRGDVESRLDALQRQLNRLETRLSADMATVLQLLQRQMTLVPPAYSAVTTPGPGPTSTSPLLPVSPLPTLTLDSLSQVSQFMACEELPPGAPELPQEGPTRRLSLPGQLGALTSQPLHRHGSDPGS
Description: Evaluation of hERG Activities
This assay is used to evaluate the disclosed compounds's inhibition activities against the hERG channel.
CHO-K1 cells stably expressing hERG were grown in Ham's F-12 Medium with glutamine containing 10% heat-inactivated FBS, 1% penicillin/streptomycin, hygromycin (100 μg/ml) and G418 (100 μg/ml). Cells were grown in culture flasks at 37° C. in a 5% CO2-humidified incubator.
The cells were bathed in an extracellular solution containing 140 mM NaCl, 4 mM KCl, 2 mM CaCl2), 1 mM MgCl2, 5 mM Glucose, 10 mM HEPES; pH adjusted to 7.4 with NaOH; 295-305 mOsm. The internal solution contained 50 mM KCl, 10 mM NaCl, 60 mM KF, 20 mM EGTA, 10 mM HEPES; pH adjusted to 7.2 with KOH; 285 mOsm. All compounds were dissolved in DMSO at 30 mM. Compound stock solutions were freshly diluted with external solution to concentrations of 30 nM, 100 nM, 300 nM, 1 μM, 3 μM, 10 μM, 30 μM and 100 μM. The highest content of DMSO (0.3%) was present in 100 μM.
The voltage protocol (see Table B) was designed to simulate voltage changes during a cardiac action potential with a 300 ms depolarization to +20 mV (analogous to the plateau phase of the cardiac action potential), a repolarization for 300 ms to −50 mV (inducing a tail current) and a final step to the holding potential of −80 mV. The pulse frequency was 0.3 Hz. Control (compound-free) and compound pulse trains for each compound concentration applied contained 70 pulses.
Whole-cell current recordings and compound application were enabled by means of an automated patch clamp platform Patchliner (Nanion). EPC 10 patch clamp amplifier (HEKA) along with Patchmaster software (HEKA Elektronik Dr. Schulze GmbH) was used for data acquisition. Data were sampled at 10 kHz without filtering. Increasing compound concentrations were applied consecutively to the same cell without washouts in between.
AUC and PEAK values were obtained with Patchmaster (HEKA Elektronik Dr. Schulze GmbH). To determine IC50 the last single pulse in the pulse train corresponding to a given compound concentration was used. Obtained AUC and PEAK values in the presence of compound were normalized to control values in the absence of compound. Using Origin (OridinLab), IC50 was derived from data fit to Hill equation: Icompound/control=(100−A)/(1+([compound]/IC50)nH)+A, where IC50 is the concentration at which current inhibition is half-maximal, [compound] is the applied compound concentration, A is the fraction of current that is not blocked and nH is the Hill coefficient.

T1 sequence (P22001 whole entry): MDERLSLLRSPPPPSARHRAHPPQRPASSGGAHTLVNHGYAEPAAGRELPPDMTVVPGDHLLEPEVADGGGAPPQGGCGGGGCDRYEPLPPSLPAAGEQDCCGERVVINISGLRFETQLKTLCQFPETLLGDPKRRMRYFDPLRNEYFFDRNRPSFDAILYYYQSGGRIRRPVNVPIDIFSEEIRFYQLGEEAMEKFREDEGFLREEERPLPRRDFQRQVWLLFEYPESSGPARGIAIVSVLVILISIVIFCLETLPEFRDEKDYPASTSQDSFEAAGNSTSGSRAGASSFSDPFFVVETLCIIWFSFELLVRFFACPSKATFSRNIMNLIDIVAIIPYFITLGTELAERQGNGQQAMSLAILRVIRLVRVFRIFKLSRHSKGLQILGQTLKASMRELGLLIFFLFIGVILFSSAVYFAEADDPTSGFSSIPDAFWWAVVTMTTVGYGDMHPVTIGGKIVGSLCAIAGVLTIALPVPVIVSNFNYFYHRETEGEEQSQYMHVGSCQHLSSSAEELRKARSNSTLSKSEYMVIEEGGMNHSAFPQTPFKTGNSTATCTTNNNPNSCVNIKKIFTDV

| IC50 (Kv1.3 potassium channel) | SMILES | IC50 (hERG channel) |
| --- | --- | --- |
| < 1 µM | NC[C@H]1C[C@@H](c2c(O)ccc(Cl)c2Cl)CCN1 (relative stereo) [Compound 74, (2R,4S)-rel-2-(aminomethyl)piperidin-4-yl]-3,4-dichlorophenol] | > 30 µM |
| < 1 µM | NC(=O)[C@H]1C[C@@H](c2cc(Cl)c(Cl)cc2O)CCN1 (relative stereo) [Compound 85, (2R,4S)-rel-4-(4,5-dichloro-2-hydroxyphenyl)piperidine-2-carboxamide] | > 30 µM |
| < 1 µM | O=S(=O)(NC[C@H]1C[C@@H](c2c(O)ccc(Cl)c2Cl)CCN1)C1CC1 (relative stereo) [Compound 97, N-(2R,4S)-rel-[[4-(2,3-dichloro-6-hydroxyphenyl)piperidin-2-yl]methyl]cyclopropanesulfonamide] | > 30 µM |
| < 1 µM | NC(=O)C[C@H]1C[C@@H](c2c(O)ccc(Cl)c2Cl)CCN1 (relative stereo) [Compound 108, 2-[(2R,4S)-rel-4-(2,3-dichloro-6-hydroxyphenyl)piperidin-2-yl]acetamide] | > 30 µM |
| < 1 µM | CS(=O)(=O)NC[C@H]1C[C@@H](c2c(O)ccc(Cl)c2Cl)CCN1 (relative stereo) [Compound 110, (2R,4S)-rel-N-[[4-(2,3-dichloro-6-hydroxyphenyl)piperidin-2-yl]methyl]methanesulfonamide] | > 30 µM |
| < 1 µM | O=C(C[C@H]1C[C@@H](c2c(O)ccc(Cl)c2Cl)CCN1)NC1CCC1 (relative stereo) [Compound 111, N-cyclobutyl-(2R,4S)-rel-2-[4-(2,3-dichloro-6-hydroxyphenyl)piperidin-2-yl]acetamide] | < 30 µM |
| < 1 µM | O=C(C[C@H]1C[C@@H](c2c(O)ccc(Cl)c2Cl)CCN1)N1CCOCC1 (relative stereo) [Compound 113, 2-[4-(2,3-dichloro-6-hydroxyphenyl)piperidin-2-yl]-1-(morpholin-4-yl)ethan-1-one] | > 30 µM |
| < 1 µM | Cn1cc(NC(=O)C[C@H]2C[C@@H](c3c(O)ccc(Cl)c3Cl)CCN2)cn1 (relative stereo) [Compound 114, (2R,4S)-rel-2-[4-(2,3-dichloro-6-hydroxyphenyl)piperidin-2-yl]-N-(1-methyl-1H-pyrazol-4-yl)acetamide] | > 30 µM |
| < 1 µM | CNC(=O)C[C@H]1C[C@@H](c2c(O)ccc(Cl)c2Cl)CCN1 (relative stereo) [Compound 115, 2-[4-(2,3-dichloro-6-hydroxyphenyl)piperidin-2-yl]-N-methylacetamide] | > 30 µM |
| < 1 µM | CNC(=O)C[C@@H]1C[C@H](c2c(O)ccc(Cl)c2Cl)CCN1 (single isomer, unassigned) [Compound 14] | > 30 µM |
| < 1 µM | CNC(=O)C[C@H]1C[C@@H](c2c(O)ccc(Cl)c2Cl)CCN1 (single isomer, unassigned) [Compound 30] | > 30 µM |
| < 1 µM | O=C(C[C@@H]1C[C@H](c2c(O)ccc(Cl)c2Cl)CCN1)N1CCOCC1 (single isomer, unassigned) [Compound 32] | > 30 µM |
| < 1 µM | NC(=O)[C@@H]1C[C@H](c2c(O)cc(Cl)c(Cl)c2Cl)CCN1 (single isomer, unassigned) [Compound 63] | < 30 µM |
| < 1 µM | NC(=O)[C@H]1C[C@@H](c2c(O)cc(Cl)c(Cl)c2Cl)CCN1 (single isomer, unassigned) [Compound 65] | < 30 µM |
| < 1 µM | O=C(C[C@H]1CC(c2c(O)ccc(Cl)c2Cl)CCN1)N1CCOCC1 (single isomer, unassigned) [Compound 67] | > 30 µM |
| < 1 µM | NC(=O)[C@H]1C[C@@H](c2c(O)ccc(Cl)c2Cl)CCN1 (single isomer, unassigned) [Compound 70] | > 30 µM |
| < 1 µM | NC(=O)[C@@H]1C[C@H](c2c(O)ccc(Cl)c2Cl)CCN1 (single isomer, unassigned) [Compound 73] | > 30 µM |
| < 1 µM | CC(=O)NC[C@H]1C[C@@H](c2c(O)ccc(Cl)c2Cl)CCN1 (single isomer, unassigned) [Compound 86] | > 30 µM |
| < 1 µM | CC(=O)NC[C@@H]1CC(c2c(O)ccc(Cl)c2Cl)CCN1 (single isomer, unassigned) [Compound 89] | > 30 µM |
| < 1 µM | Nc1nnc([C@@H]2C[C@H](c3c(O)ccc(Cl)c3Cl)CCN2)o1 (single isomer, unassigned) [Compound 105] | > 30 µM |
| < 10 µM | O=C(C1CC(c2c(O)ccc(Cl)c2Cl)CCN1)N1CCNCC1 (stereo not drawn) [Compound 75, 3,4-dichloro-2-[2-(piperazine-1-carbonyl)piperidin-4-yl]phenol] |  |
| < 10 µM | CC1(C(N)=O)CC(c2c(O)ccc(Cl)c2Cl)CCN1 (stereo not drawn) [Compound 83, 4-(2,3-dichloro-6-hydroxyphenyl)-2-methylpiperidine-2-carboxamide] |  |
| < 10 µM | O=C(O)C1CC(c2c(O)ccc(Cl)c2Cl)CCN1 (stereo not drawn) [Compound 84, 4-(2,3-dichloro-6-hydroxyphenyl)piperidine-2-carboxylic acid] |  |
| < 10 µM | O=C1NCCC12CC(c1c(O)ccc(Cl)c1Cl)CCN2 (stereo not drawn) [Compound 87, 9-(2,3-dichloro-6-hydroxyphenyl)-2,6-diazaspiro[4.5]decan-1-one] |  |
| < 10 µM | NC(=O)C1CCCN(c2c(O)ccc(Cl)c2Cl)C1 (stereo not drawn) [Compound 88, 1-(2,3-dichloro-6-hydroxyphenyl)piperidine-3-carboxamide] |  |
| < 10 µM | NC(=O)[C@H]1CN(c2c(O)ccc(Cl)c2Cl)CCN1 [Compound 90, (2R)-4-(2,3-dichloro-6-hydroxyphenyl)piperazine-2-carboxamide] |  |
| < 10 µM | NC(=O)[C@@H]1CN(c2c(O)ccc(Cl)c2Cl)CCN1 [Compound 92] |  |
| < 10 µM | O=S(=O)(C1CCNC1)N1CCC(c2c(O)cc(Cl)c(Cl)c2Cl)CC1 (stereo not drawn) [Compound 95, 3,4,5-trichloro-2-[1-(pyrrolidine-3-sulfonyl)piperidin-4-yl]phenol] |  |
| < 1 µM | NC(=O)[C@H]1CN(c2c(O)cc(Cl)c(Cl)c2Cl)CCN1 [Compound 96, (2R)-4-(2,3,4-trichloro-6-hydroxyphenyl)piperazine-2-carboxamide] |  |

| SMILES | IC50 (Kv1.3 potassium channel) | IC50 (hERG channel) |
| --- | --- | --- |
| Oc1cc(Cl)c(Cl)cc1C1CCNC1 (single isomer, unassigned) [Compound 38, 4,5-dichloro-2-(pyrrolidin-3-yl)phenol] | < 1 µM | < 30 µM |
| NC(=O)[C@H]1CNCC[C@H]1c1cc(Cl)c(Cl)cc1O (single isomer, unassigned) [Compound 42] | < 1 µM | > 30 µM |
| Oc1ccc(F)c(Cl)c1C1CCNCC1 [Compound 68, 3-chloro-4-fluoro-2-(piperidin-4-yl)phenol] | < 10 µM |  |
| Oc1ccc(C2CC2)c(Cl)c1C1CCNCC1 [Compound 69, 3-chloro-4-cyclopropyl-2-(piperidin-4-yl)phenol] | < 30 µM |  |
| Cc1ccc(O)c(C2CCNCC2)c1Cl [Compound 71, 3-chloro-4-methyl-2-(piperidin-4-yl)phenol] | < 30 µM |  |
| Oc1ccc(Br)c(Cl)c1C1CCNCC1 [Compound 81, 4-bromo-3-chloro-2-(piperidin-4-yl)phenol] | < 1 µM |  |
